Drawing on the OPERA property sets (Mansouri et al. 2018), this text covers logP for 107 molecules.

Where a SMILES comes first, the peptide text is derived from it. [ ]: non-standard residue; d: D form. ξ: configuration not given here. ξW = NC(Cc1c[nH]c2ccccc12)C(=O)O

For the molecule `COc1ccc(C2=NC(C(=O)O)CS2)c(O)c1OC` (configuration not stated), the logP worked out at 1.1.

With `CCON=C(C)c1cccc(Oc2nc(OC)cc(OC)n2)c1C(=O)OC`, the log partition coefficient (logP) turned out to be 2.96.

Regarding `Cn1c2c(c3cc([N+](=O)[O-])ccc31)CCNC2`, the lipophilicity (logP) turned out to be 2.07.

`O=c1[nH]c2cc(Cl)ccc2c(O)c1-c1cccc(Cc2ccc(CCN3CCOCC3)cc2)c1` displayed a log partition coefficient (logP) of 5.2.

Consider `CNc1ccc2cc3ccc4c(c3nc2c1CO)COCN4`, for which the log partition coefficient (logP) amounted to 1.65.

In turn, `Clc1ccc(-c2cnn(-c3ccccn3)c2)cc1` registered a log partition coefficient (logP) of 4.3.

In turn, `c1ccc(Cn2cnc3ccccc32)cc1` showed a logP of 2.91.

In turn, `OCCCCCCCCNc1ncnc2c1ncn2C1OC(CO)C(O)C1O` (configuration not stated) had a log partition coefficient (logP) of 1.3.

In turn, `COc1cccc(C=[N+]([O-])C(C)(C)C)c1` had a lipophilicity (logP) of 1.4.

Regarding `O=c1ssc(-c2ccccc2)c1-c1ccccc1`, the logP amounted to 4.07.

In the case of `CN1CCc2ccccc2C1`, the lipophilicity (logP) was 2.14.

With `CC(C)(C)NC(=O)[C@@H]1CN(Cc2cccnc2)CCN1C[C@@H](O)C[C@@H](Cc1ccccc1)C(=O)N[C@H]1c2ccccc2C[C@H]1O`, the logP is 3.49.

`C=CC(=O)Oc1ccccc1`: the log partition coefficient (logP) amounted to 1.94.

In turn, `c1ccc2c(c1)OCC(c1ncc[nH]1)O2` (configuration not stated) yielded a logP of 1.76.

`C#CCNc1nc(CCC)nc(N2CCOCC2)n1` returned a logP of 2.3.

Take `CCCC(=NOCC)C1=C(O)CC(C)(C)OC1=O`: the logP worked out at 2.56.

`CCC(C)SSc1ncc[nH]1` (configuration not stated) showed a logP of 2.76.

Regarding `O=c1nc(N=CN2CCCCC2)ccn1C1CC(O)C(CO)O1` (configuration not stated), the lipophilicity (logP) was -0.51.

`C#C[C@]1(O)CC[C@H]2[C@@H]3CCC4=CC(=O)CC[C@@H]4[C@H]3C(=C)C[C@@]21CC` came in with a logP of 3.16.

Regarding `CNC(=O)Cn1cccc(O)c1=O`, the logP is -1.15.

On to `CCOC(=O)C(CCc1ccccc1)NC(C)C(=O)N1N=C(C(C)(C)C)SC1C(=O)O` (configuration not stated), for which the lipophilicity (logP) was 1.62.

Molecule `C=CCNc1ncnc2nc[nH]c12` had a logP of 1.09.

In the case of `Cc1c(O)c(=O)ccn1CCCOC(=O)c1ccccc1`, the lipophilicity (logP) worked out at 1.25.

In turn, `CC(C)CC(NC(=O)C(CC(C)C)NC(=O)C1CCCN1)C(=O)O` (stereo not drawn) (H-Pro-Leu-Leu-OH; configuration not given here) returned a logP of -1.64.

With `NC(=O)Cc1ccc(O)cc1`, the logP was -0.09.

Regarding `COc1ccc(CCNCC(O)COc2ccc(-c3nc(C)c(C)[nH]3)cc2)cc1OC` (configuration not stated), the logP amounted to 3.22.

As to `NC1=NCC(CN2CCC(c3ccccc3)CC2)O1` (configuration not stated), the lipophilicity (logP) was 1.96.

`NC1=NCC(COc2cccc(Cl)c2)O1` (configuration not stated) yielded a logP of 2.09.

The molecule `Nc1ccc(CNC(=O)C2CCCN2C(=O)C(N)C(C2CCCCC2)C2CCCCC2)cn1` (configuration not stated) displayed a logP of 4.61.

Molecule `CCC1(c2ccncc2)CCC(=O)NC1=O` (configuration not stated) had a lipophilicity (logP) of 0.58.

For `NCC(=O)NC(Cc1c[nH]c2ccccc12)C(N)=O` (configuration not stated) (H-Gly-[ξW]-NH2), the lipophilicity (logP) was -0.48.

`CC(C)CNC(=O)N1C(=O)N(C)CC1O` (configuration not stated): the logP was 1.32.

`COc1ccccc1N1CCN(CCNCC(O)CON=C(C2CC2)C2CC2)CC1` (configuration not stated) returned a logP of 3.21.

Molecule `CC(=O)OCOC(=O)N(C)N=Nc1ccc(C#N)cc1` displayed a logP of 2.08.

Regarding `NS(=O)(=O)c1ccc(Cn2cnc3ccccc32)cc1`, the logP came to 1.04.

Turning to `CCNc1nc(N)nc(O)n1`, the logP was 1.08.

Regarding `COc1ccc2c(c1)CCN(C)C2`, the logP was found to be 2.32.

Take `CC(=NNC(=O)c1ccncc1)c1cnccn1`: the log partition coefficient (logP) is 1.2.

`Cc1[nH]cnc1CSCCNC1=C([N+](=O)[O-])CCN1` registered a logP of -0.87.

Regarding `CC(C)C(NC(=O)C(Cc1ccccc1)NC(=O)CNC(=O)CNC(=O)C(N)Cc1c[nH]c2ccccc12)C(=O)O` (configuration not stated) (H-WGGFV-OH; configuration not given here), the lipophilicity (logP) is -0.44.

As for `Clc1cc(Cl)c(-c2c(Cl)ccc(Cl)c2Cl)c(Cl)c1`, the log partition coefficient (logP) was 6.75.

In turn, `CNC(C)Cc1ccc(F)cc1` (configuration not stated) displayed a lipophilicity (logP) of 2.15.

Take `CC(C)C(N)C(=O)NCC(=O)NC(Cc1ccccc1)C(=O)NC(Cc1ccccc1)C(=O)O` (configuration not stated) (H-VGFF-OH; configuration not given here): the logP was -0.51.

In turn, `NC1=NCC(COc2ccccc2Cc2ccccc2)O1` (configuration not stated) returned a logP of 3.05.

`CN(C)CCOc1ccccc1Cl` had a lipophilicity (logP) of 2.87.

In turn, `O=[N+]([O-])c1cc(F)ccc1O` had a logP of 1.88.

On to `Cc1ccnc2c1NC(=O)c1cccnc1N2C1CC1`, for which the lipophilicity (logP) worked out at 1.81.

For the molecule `Cc1cn(C2C=CC(COP3(=O)OCc4ccccc4O3)O2)c(=O)[nH]c1=O` (configuration not stated), the logP came to 0.28.

In turn, `CCN(CC)c1ccc(NC(=O)N(C)OC)cc1` returned a logP of 2.33.

`COc1ccc(C2=NC(C)(C(=O)O)CS2)c(O)c1OC` (configuration not stated) gave a lipophilicity (logP) of 1.4.

In turn, `CSc1cccc2nc(N)nc(N)c12` had a lipophilicity (logP) of 1.81.

In the case of `COc1cc2c(c(OC)c1OC)-c1ccc(SC)c(=S)cc1C(NC(C)=O)CC2` (configuration not stated), the logP stood at 1.75.

The molecule `Cc1c[nH]c(Cc2ccc(OCC(O)CNC(C)(C)C)cc2)n1` (configuration not stated) had a logP of 1.4.

Molecule `Clc1ccc(CNc2ncnc3nc[nH]c23)cc1` yielded a logP of 2.9.

For the molecule `CCCCCCCCCCCCCCc1ccccc1`, the logP was 9.95.

`COc1ccc(CNc2[nH]cnc3ncnc2-3)cc1` yielded a logP of 2.17.

On to `CN1CCN(C2=NC(=O)N(c3ccc(Cl)cc3)C2)CC1`, for which the logP was determined as 2.2.

The molecule `CC(C)CC(N)C(=O)N1CCCC1C(=O)NC(CC(C)C)C(=O)O` (configuration not stated) yielded a logP of -1.56.

For `Brc1c2ccccc2c(Br)c2ccccc12`, the logP worked out at 6.29.

With `CC[C@H](C)C(=O)O[C@H]1C[C@H](O)C=C2C=C[C@H](C)[C@H](CC[C@@H](O)C[C@@H](O)CC(=O)O)[C@H]21`, the lipophilicity (logP) stood at 2.18.

`CC(=O)OC(C)(C)C1CCC2(C)CCCC(CO)C2C1` (configuration not stated) gave a log partition coefficient (logP) of 3.49.

Regarding `COC(=O)c1ccc(C(=O)OC)c(N)c1`, the logP was 2.28.

In turn, `O=C(NO)C(Cc1ccccc1)C(=O)NCc1ccc(F)cc1` (configuration not stated) came in with a logP of 1.8.

In turn, `CC(C)CNc1ccncc1S(=O)(=O)NC(=NC#N)NC(C)C` displayed a lipophilicity (logP) of 0.88.

`Cc1cc2c(ccc3c(C)c(C)c(=O)oc32)o1` returned a logP of 3.27.

With `CON(C)C(=O)Nc1ccc(NS(C)(=O)=O)cc1`, the logP came to 0.14.

Molecule `Nc1nnnn1-c1ccc(Br)cc1` showed a logP of 1.63.

Molecule `CC=C(C)C(=O)OCC1CCCC2(C)CCC(C(C)(C)O)CC12` (configuration not stated) gave a lipophilicity (logP) of 5.27.

With `Cc1cccc(Nc2ccncc2S(=O)(=O)NC(=NC#N)NC(C)C)c1`, the logP is 1.86.

Molecule `CC(C)NCC(O)COc1ccc(NC=O)cc1` (configuration not stated) gave a logP of 0.54.

As to `O=C(Nc1ccccc1)c1ccccc1I`, the logP came out at 2.85.

For `CC(C)CC(NC(=O)C(N)C(C)C)C(=O)O` (stereo not drawn) (H-Val-Leu-OH; configuration not given here), the logP is -2.07.

As to `Clc1ccc(N2CCN(CCn3nc4ccccc4n3)CC2)cc1`, the lipophilicity (logP) was determined as 4.05.

`CSCCC(N)C(=O)NC(Cc1ccc(O)cc1)C(=O)O` (stereo not drawn) (H-Met-Tyr-OH; configuration not given here) returned a lipophilicity (logP) of -2.03.

In turn, `Cn1ccnc1CC1COc2ccccc2O1` (configuration not stated) showed a logP of 1.93.

`CC(=O)OC1CC(OC2C(O)CC(OC3C(O)CC(OC4CCC5(C)C(CCC6C5CC(O)C5(C)C(C7=CC(=O)OC7)CCC65O)C4)OC3C)OC2C)OC(C)C1OC(C)=O` (configuration not stated) gave a logP of 2.59.

`COc1ccc(CCNCC(O)COc2ccc(-c3nc(-c4cccs4)c[nH]3)cc2C)cc1OC` (configuration not stated) yielded a logP of 4.8.

On to `CCCCCNc1ncnc2nc[nH]c12`, for which the logP is 2.58.

For `COc1cc2ncnc(Nc3ccccc3F)c2cc1OC`, the lipophilicity (logP) came to 2.2.

Consider `CCCCNc1ccncc1S(=O)(=O)NC(=NC#N)NC(C)C`, for which the logP is 1.05.

For the molecule `O=C(O)CCCCON=C(c1cccc(C(F)(F)F)c1)c1ncccn1`, the logP amounted to 2.77.

Regarding `[O-][n+]1ccc(-c2ccccc2)cc1`, the logP is 0.93.

On to `COC(=O)Cn1c(C)nc2ccccc2c1=O`, for which the lipophilicity (logP) was determined as 1.46.

Molecule `COC1CC(OC2C(O)CC(OC3CCC4(C)C(CCC5C4CC(O)C4(C)C(C6=CC(=O)OC6)CCC54O)C3)OC2C)OC(C)C1OC1CC(O)C(O)C(C)O1` (configuration not stated) had a logP of 1.8.

For the molecule `CCCNC(=O)c1cccc2nc(N)nc(N)c12`, the lipophilicity (logP) was 0.83.

For the molecule `CCCc1nc(NCC(=O)N(C)C)nc(N2CCOCC2)n1`, the lipophilicity (logP) was found to be 0.67.

Regarding `CC(C)(C)[N+]([O-])=Cc1ccc(Br)cc1`, the logP was 2.

`O=C(O)CCCCON=C(c1ccccc1)c1ccncn1` had a lipophilicity (logP) of 2.27.

Molecule `C=C(C)CC(C)(CCC=C(C)C)OC(C)=O` (configuration not stated) returned a logP of 4.36.

In turn, `Cc1oc2ccc3c(C)cc(=O)[nH]c3c2c1C` registered a log partition coefficient (logP) of 3.18.

The molecule `COC(=O)C=CCn1ccnc1[N+](=O)[O-]` registered a logP of 0.32.

Regarding `c1nc(N2CCCC2)c2[nH]cnc2n1`, the log partition coefficient (logP) was 1.68.

`Cn1c(=O)[nH]c2ncn(C)c2c1=O` showed a logP of -0.22.

`O=C(NP(=O)(N1CC1)N1CC1)c1ccc(F)cc1`: the logP is 0.86.

Molecule `COC(=O)C(C)NP(=O)(OCC1C=CC(n2cc(C)c(=O)[nH]c2=O)O1)Oc1cccc(Cl)c1` (configuration not stated) yielded a log partition coefficient (logP) of 1.42.

`NC1=NCC(CN2CCN(c3ccccc3F)CC2)O1` (configuration not stated) gave a logP of 1.06.

In the case of `CCOC(=O)C1=C(C)NC(C)=C(C(=O)OC)C1c1ccc(OC)c(OC)c1` (configuration not stated), the lipophilicity (logP) was found to be 3.6.

`CCN(CC)CCSC(=NO)c1nc(Cc2ccccc2)no1` came in with a logP of 2.55.

Molecule `CCC(C)C(NC(=O)C(CC(C)C)NC(=O)C(N)CO)C(=O)O` (stereo not drawn) (H-Ser-Leu-Ile-OH; configuration not given here) returned a logP of -1.99.

Regarding `COc1c2oc(=O)c(C)cc2cc2c(C)c(C)oc12`, the logP was found to be 3.28.

`COC1Cc2c(O)cc(O)cc2OC1c1ccc(O)c(O)c1` (configuration not stated) yielded a logP of 1.

With `CCNC1CCc2c(OC)cccc2C1C` (configuration not stated), the logP turned out to be 2.67.

In turn, `CCCc1ccc(CNc2[nH]cnc3ncnc2-3)cc1` had a logP of 3.72.

In the case of `O=C1Oc2ccccc2CN1CCO[N+](=O)[O-]`, the log partition coefficient (logP) is 1.82.

With `COc1ccc(CCNCC(O)COc2ccc(-c3nc(C(C)=O)c[nH]3)cc2)cc1OC` (configuration not stated), the log partition coefficient (logP) came out at 2.7.

Consider `CCCCCC(O)C=CC1C(O)CC(O)C1CC=CCCCC(=O)OC` (configuration not stated), for which the logP was determined as 3.07.

`CC1CCN(CC2CN=C(N)O2)CC1` (configuration not stated): the logP came to 0.91.
